# Source: ChEMBL document CHEMBL5104192, “Late-Stage Functionalization with Cysteine Staples Generates Potent and Selective Melanocortin Receptor-1 Agonists” (J Med Chem, 2022)
# *1 amine or outer side, *2 acyl side, *3 side chain or, on linkers, in order; H or OH if unused. Where a SMILES comes first, the peptide text is derived from it. Bridges are numbered along the chain shown (N, C = ends). [ ]: non-standard residue; d: D form. X6 = O=C(NCCOCCOCCNC(=O)c1ccc2c(c1)C(=O)OC21c2ccc(O)cc2Oc2cc(O)ccc21)OCC1C2CCc3c([*:1])nnc([*:2])c3CCC21; X4 = C#CCCCCN1C(=O)C([*:1])=C([*:2])C1=O; NMeR = CN[C@@H](CCCNC(=N)N)C(=O)O; CH2COCH2 = O=C(C[*:1])C[*:2]; X1 = n1nc([*:2])nnc1[*:1]; Nle = CCCC[C@H](N)C(=O)O; X7 = C(C[*:1])C[*:2]
# Columns and labels:
# [1] = species: Homo sapiens; test: Selectivity ratio of EC50 for human MC3R to EC50 for human MC1R
# [2] = target: T1, Melanocortin receptor 4 (Homo sapiens, UniProt P32245); test: Displacement of [125I]-NDP-alpha-MSH from human MC4R expressed in HEK2936E cell membrane measured after 16 to 23 hrs by 1450 microbeta trilux scintillation proximity assay; assay type: cell membranes
# [3] = species: Homo sapiens; test: Selectivity ratio of EC50 for human MC4R to EC50 for human MC1R
# [4] = target: T2, Melanocortin receptor 3 (Homo sapiens, UniProt P41968); test: Displacement of [125I]-NDP-alpha-MSH from human MC3R expressed in HEK2936E cell membrane measured after 16 to 23 hrs by 1450 microbeta trilux scintillation proximity assay; assay type: cell membranes
# [5] = species: Homo sapiens; test: Selectivity ratio of Ki for human MC4R to Ki for human MC1R
# [6] = target: T3, Melanocyte-stimulating hormone receptor (Homo sapiens, UniProt Q01726); test: Agonist activity at human MC1R expressed in HEK2936E cells assessed as cAMP production in presence of IBMX by time resolved fluorescence assay; assay type: functional, cell-based
# [7] = target: T2, Melanocortin receptor 3; test: Agonist activity at human MC3R expressed in HEK2936E cells assessed as cAMP production in presence of IBMX by time resolved fluorescence assay; assay type: functional, cell-based
# [8] = species: Homo sapiens; test: Selectivity ratio of Ki for human MC3R to Ki for human MC1R
# [9] = target: T1, Melanocortin receptor 4; test: Agonist activity at human MC4R expressed in HEK2936E cells assessed as cAMP production in presence of IBMX by time resolved fluorescence assay; assay type: functional, cell-based
# [10] = target: T3, Melanocyte-stimulating hormone receptor; test: Displacement of [125I]-NDP-alpha-MSH from human MC1R expressed in HEK2936E cell membrane measured after 16 to 23 hrs by 1450 microbeta trilux scintillation proximity assay; assay type: cell membranes
# T1 sequence (P32245 whole entry): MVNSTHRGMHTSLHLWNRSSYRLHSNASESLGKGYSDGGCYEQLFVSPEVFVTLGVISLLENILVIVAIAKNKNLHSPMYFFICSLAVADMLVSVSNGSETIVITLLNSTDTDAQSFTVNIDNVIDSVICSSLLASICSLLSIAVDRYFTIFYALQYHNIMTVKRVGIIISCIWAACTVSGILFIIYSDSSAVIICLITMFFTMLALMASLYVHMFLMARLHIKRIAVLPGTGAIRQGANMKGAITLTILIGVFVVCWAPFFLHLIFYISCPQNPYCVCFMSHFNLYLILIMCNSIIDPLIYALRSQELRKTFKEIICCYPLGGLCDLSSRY
# T2 sequence (P41968 whole entry): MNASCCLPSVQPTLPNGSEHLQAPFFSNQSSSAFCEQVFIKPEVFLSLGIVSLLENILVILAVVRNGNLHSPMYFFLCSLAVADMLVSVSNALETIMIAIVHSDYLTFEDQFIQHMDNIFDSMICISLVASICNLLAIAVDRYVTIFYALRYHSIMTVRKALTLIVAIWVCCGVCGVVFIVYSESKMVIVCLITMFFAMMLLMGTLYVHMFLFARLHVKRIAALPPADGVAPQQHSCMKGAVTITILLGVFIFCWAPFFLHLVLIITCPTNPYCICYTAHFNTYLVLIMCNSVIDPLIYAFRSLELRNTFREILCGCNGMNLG
# T3 sequence (Q01726 whole entry): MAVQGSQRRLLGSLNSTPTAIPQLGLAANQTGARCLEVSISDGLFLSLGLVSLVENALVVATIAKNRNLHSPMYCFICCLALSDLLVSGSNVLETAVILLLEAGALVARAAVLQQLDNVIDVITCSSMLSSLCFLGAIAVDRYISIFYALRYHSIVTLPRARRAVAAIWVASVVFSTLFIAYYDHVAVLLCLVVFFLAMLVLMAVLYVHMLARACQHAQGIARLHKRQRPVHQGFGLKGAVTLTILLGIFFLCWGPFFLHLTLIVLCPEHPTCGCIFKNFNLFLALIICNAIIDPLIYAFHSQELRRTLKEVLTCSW
SMILES,Ratio EC50 [1],Ki [2] [nM],Ratio EC50 [3],Ki [4] [nM],Ratio Ki [5],EC50 ([6]; read-out: EC50) [nM],EC50 ([6]; read-out: pEC50 (converted)) [nM],EC50 [7] [nM],Ratio Ki [8],EC50 [9] [nM],Ki [10] [nM]
CCCC[C@@H]1NC(=O)[C@@H]2CSc3nnc(nn3)SC[C@H](NC(=O)[C@H](CCCNC(=N)N)NC(=O)[C@H](CC(=O)O)NC(=O)[C@H](Cc3c[nH]c4ccccc34)NC(=O)[C@H](CCCNC(=N)N)NC(=O)[C@H](Cc3ccccc3)NC(=O)[C@H](Cc3cnc[nH]3)NC(=O)CNC1=O)C(=O)N[C@@H](Cc1cnc[nH]1)C(=O)N[C@@H](Cc1ccccc1)C(=O)N[C@@H](CCCNC(=N)N)C(=O)N[C@@H](Cc1c[nH]c3ccccc13)C(=O)N[C@@H](CCCNC(=N)N)C(=O)N2 (cyclo(CHFRWRC[Nle]GHFRWDR); linker 1-7 via X1),4,33.9,40,11,47,0.004,0.0447,0.182,15,1.78,0.724
CCCC[C@@H]1NC(=O)[C@@H]2CSCCCSC[C@H](NC(=O)[C@H](CCCNC(=N)N)NC(=O)[C@H](CC(=O)O)NC(=O)[C@H](Cc3c[nH]c4ccccc34)NC(=O)[C@H](CCCNC(=N)N)NC(=O)[C@H](Cc3ccccc3)NC(=O)[C@H](Cc3cnc[nH]3)NC(=O)CNC1=O)C(=O)N[C@@H](Cc1cnc[nH]1)C(=O)N[C@@H](Cc1ccccc1)C(=O)N[C@@H](CCCNC(=N)N)C(=O)N[C@@H](Cc1c[nH]c3ccccc13)C(=O)N[C@@H](CCCNC(=N)N)C(=O)N2 (cyclo(CHFRWRC[Nle]GHFRWDR); linker 1-7 via X7),2,44.7,20,19.5,34,,0.141,0.302,15,2.88,1.32
C#CCCCCN1C(=O)C2=C(SC[C@@H]3NC(=O)[C@H](CCCNC(=N)N)NC(=O)[C@H](CC(=O)O)NC(=O)[C@H](Cc4c[nH]c5ccccc45)NC(=O)[C@H](CCCNC(=N)N)NC(=O)[C@H](Cc4ccccc4)NC(=O)[C@H](Cc4cnc[nH]4)NC(=O)CNC(=O)[C@H](CCCC)NC(=O)[C@H](CS2)NC(=O)[C@H](CCCNC(=N)N)NC(=O)[C@H](Cc2c[nH]c4ccccc24)NC(=O)[C@H](CCCNC(=N)N)NC(=O)[C@H](Cc2ccccc2)NC(=O)[C@H](Cc2cnc[nH]2)NC3=O)C1=O (cyclo(CHFRWRC[Nle]GHFRWDR); linker 1-7 via X4),2,61.7,27,16.6,35,,0.0813,0.158,9,2.19,1.78
CCCC[C@@H]1NC(=O)[C@@H]2CSc3nnc(c4c3CCC3C(CC4)C3COC(=O)NCCOCCOCCNC(=O)c3ccc4c(c3)C(=O)OC43c4ccc(O)cc4Oc4cc(O)ccc43)SC[C@H](NC(=O)[C@H](CCCNC(=N)N)NC(=O)[C@H](CC(=O)O)NC(=O)[C@H](Cc3c[nH]c4ccccc34)NC(=O)[C@H](CCCNC(=N)N)NC(=O)[C@H](Cc3ccccc3)NC(=O)[C@H](Cc3cnc[nH]3)NC(=O)CNC1=O)C(=O)N[C@@H](Cc1cnc[nH]1)C(=O)N[C@@H](Cc1ccccc1)C(=O)N[C@@H](CCCNC(=N)N)C(=O)N[C@@H](Cc1c[nH]c3ccccc13)C(=O)N[C@@H](CCCNC(=N)N)C(=O)N2 (some centres not stated) (cyclo(CHFRWRC[Nle]GHFRWDR); linker 1-7 via X6),4,263,69,30.9,93,< 0.3,0.24,0.955,11,16.6,2.82
CCCC[C@@H]1NC(=O)[C@@H]2CSCC(=O)CSC[C@H](NC(=O)[C@H](CCCNC(=N)N)NC(=O)[C@H](CC(=O)O)NC(=O)[C@H](Cc3c[nH]c4ccccc34)NC(=O)[C@H](CCCNC(=N)N)NC(=O)[C@H](Cc3ccccc3)NC(=O)[C@H](Cc3cnc[nH]3)NC(=O)CNC1=O)C(=O)N[C@@H](Cc1cnc[nH]1)C(=O)N[C@@H](Cc1ccccc1)C(=O)N[C@@H](CCCNC(=N)N)C(=O)N[C@@H](Cc1c[nH]c3ccccc13)C(=O)N[C@@H](CCCNC(=N)N)C(=O)N2 (cyclo(CHFRWRC[Nle]GHFRWDR); linker 1-7 via CH2COCH2),1,43.7,13,23.4,21,,0.55,0.692,11,7.24,2.09
CC[C@H](C)[C@@H]1NC(=O)[C@@H]2CCCN2C(=O)[C@H](Cc2c[nH]c3ccccc23)NC(=O)[C@H](CCCNC(=N)N)N(C)C(=O)[C@H](Cc2ccccc2)NC(=O)[C@H](Cc2cnc[nH]2)NC(=O)[C@H]([C@@H](C)O)NC(=O)[C@@H](NC(C)=O)CSSC[C@@H](C(N)=O)NC1=O (Ac-CTHF[NMeR]WPIC-NH2; disulfide 1-9),5,347,7,3980,2,,8.71,39.8,20,60.3,195
